{
  "source": "patent US20250212889A1",
  "about": "“COMPOSITION CONTAINING BACILLUS AMYLOLIQUEFACIENS STRAIN FOR ENHANCING PLANT DISEASE RESISTANCE AND USE THEREOF” (CJ CHEILJEDANG CORPORATION, priority 2022, published 2025)",
  "type_in_all_cases": "in vivo",
  "key": {"cucumbers": {"test_system": "cucumbers", "assay": "Growth promoting ability, shoot weight of cucumbers", "protocol": "(§1) One week after sowing in pots, root zone treatment of each plant was performed using each 5 ml of BTH, valine, […] powder preparation, and the mixture of […] powder preparation and valine. The root zone treatment with BTH, valine, […] powder preparation, and the mixture of […] powder preparation and valine was performed twice at one week intervals, respectively. One week after the last treatment, a shoot of each treatment group was cut and weighed."}, "soybeans": {"test_system": "soybeans", "assay": "Growth promoting ability, shoot weight of soybeans", "protocol": "as §1"}, "[1]": {"test_system": "Pseudomonas syringae pv. tomato DC3000", "assay": "Induced resistance, population of pathogens in Arabidopsis thaliana leaves", "details": "Arabidopsis thaliana leaf disc, root zone treatment, 3 days after Pst inoculation", "protocol": "To this end, Arabidopsis thaliana which is a plant model was used, and Pseudomonas syringae pv. tomato DC3000 (hereinafter, referred to as Pst) causing leaf spot was used as a pathogen. To grow the plant, the surface of seeds of Arabidopsis thaliana was sterilized by immersing the seeds in 3% sodium hypochlorite (NaOCI) for 5 minutes. Thereafter, the seeds were rinsed five times using sterile water and then sown in a pot, and cultured in a plant incubator (12-hour light and 23° C. temperature conditions) for 3 weeks, followed by root zone treatment with each 50 ml of benzothiadiazole (BTH), serenade, N351 strain, valine, and mixture of N351 strain and valine. 7 days after treatment, the pathogen was inoculated and the population of pathogens was examined 0 day and 3 days later. To examine the population of pathogens, the leaves were cut into 1 cm discs using a cork borer and placed in an e-tube containing 1 ml of sterile water and beads. The leaves were ground for 2 minutes at 6000 rpm using a homogenizer (Bertin), and the population of pathogens in the juice was examined."}, "Phytophthora sojae [2]": {"test_system": "Phytophthora sojae", "assay": "Mixed treatment glass greenhouse experiment, soybean Phytophthora stem and root rot", "details": "soybeans, compared to the untreated group", "protocol": "The subject of the experiment was soybeans. Plant preparation, treatment with […] powder preparation and valine, and treatment of soybean Phytophthora stem and root rot were performed in the same manner as Example 7. […] The control value was calculated as follows. [formula]"}, "Phytophthora sojae [3]": {"test_system": "Phytophthora sojae", "assay": "Mixed treatment pot experiment, soybean Phytophthora stem and root rot", "details": "soybeans, valine 0.05% in mixed treatment, compared to the untreated group"}, "[4]": {"test_system": "Pathogenesis-related protein (PR) 1a promoter GUS fusion construct", "assay": "Induced resistance, PR1a promoter GUS expression", "details": "Arabidopsis thaliana leaves, 0 to 3 days after disease treatment"}, "[5]": {"test_system": "Pseudomonas syringae pv. lachrymans", "assay": "Mixed treatment pot experiment, cucumber bacterial leaf blight", "details": "cucumbers, valine 0.05% in mixed treatment, compared to the untreated group"}, "[6]": {"details": "root zone treatment 5 ml twice, one week after last treatment"}},
  "data": [
    {"smiles": "CSC(=O)c1cccc2nnsc12", "note": "[BTH, benzo (1,2,3)-thiadiazile-7-carbothioic acid S-methyl ester, reference compound]", "values": [
      {"measurement": "growth compared to the untreated control group", "setting": "cucumbers", "value": "growth inhibition"},
      {"measurement": "growth compared to the untreated control group", "setting": "soybeans", "value": "rather inhibited"}
    ]},
    {"smiles": "CC(C)[C@H](N)C(=O)O", "note": "[valine]", "values": [
      {"measurement": "shoot weight, average", "setting": "cucumbers; [6]", "value": 14, "unit": "g"},
      {"measurement": "growth further promoted compared to the untreated group", "setting": "cucumbers; vs untreated group of 12.6 g", "value": 1.4, "unit": "g"},
      {"measurement": "population of pathogens", "setting": "[1]", "value": 8, "unit": "LogCFU/disc"},
      {"measurement": "shoot weight, average", "setting": "soybeans; [6]", "value": 9.3, "unit": "g"},
      {"measurement": "growth further promoted compared to the untreated group", "setting": "soybeans; vs untreated group of 8.2 g", "value": 1.1, "unit": "g"},
      {"measurement": "control value", "setting": "Phytophthora sojae [2]", "value": 24, "unit": "%"},
      {"measurement": "control value", "setting": "Phytophthora sojae [3]", "value": 36, "unit": "%"},
      {"measurement": "GUS activity/expression (PR1a)", "setting": "[4]", "value": "most strongly induced 1 day after disease treatment, and expression became weaker over time"},
      {"measurement": "control value", "setting": "[5]", "value": 38, "unit": "%"}
    ]}
  ]
}
